Assay results taken from patent US6350780B1, “Methods and compositions for drug delivery” (Allergan Sales, Inc., priority 1995, dated 2002).

Tests used:
[1] = test system: eye of a mammal suffering high intraocular pressure; test: intraocular pressure after instillation into the eye of a mammal suffering high intraocular pressure; assay type: in vivo; conditions: topical instillation in ophthalmically acceptable carrier; mammal with high intraocular pressure
Experimental: This compound comprises the calcium chelator BAPTA blocked with three acetoxymethyl ester (AM) moieties, and containing a single N-linked pACE group in place. The compound is dissolved in an ophthalmically acceptable carrier for topical delivery to the eye. As indicated above, such prodrug-pACE compounds are specifically targeted to cilliary epithelial and retinal cells, without substiantially affecting other cell types. In the above formulation, based on Formula B, the compound will bind acetylcholine receptors and cell surface acetylcholinesterase without being hydrolyzed thereby. The electronically neutral prodrug is then transported or permitted to penetrate the cell membrane, where cytoplasmic esterases convert the prodrug-pACE into the tetraacetic acid form of BAPTA capable of modulating the intracellular concentration of free Ca^++, thereby providing a neuroprotective function.
The compound is instilled into the eye of a mammal suffering high intraocular pressure. The prodrug-pACE compound passes through the cornea and the drug is concentrated within ciliary epithelial and retinal ganglion cells.

[2] = test system: cultured human non-pigmented ciliary epithelial (NPE) cells; test: regulatory volume decrease (RVD) following hyposmotic swelling of cultured NPE cells; assay type: cell-based; conditions: 20 µM BAPTA-AM loaded 30 minutes in isosmotic (290 mOsm) solution, then hyposmotic (198 mOsm) solution; cell volume by Coulter Counter; FIG. 1
Experimental: In this example, NPE cells were loaded in an isosmotic (290 mOsm) solution containing 20 µM BAPTA-AM for 30 minutes prior to suspension in a hyposmotoic (198 mOsm) solution. Control cells were subjected to the same hyposmotic solution but without prior loading with BAPTA. Changes in cell volume were measured using a Coulter Counter interfaced to a Coulter Channelyzer. It is noted that, following osmotic swelling, control cells regulate towards their original isosmotic volume while BAPTA-loaded cells remain swollen. The above findings indicate that intracellular BAPTA via chelation of Ca^2+i inhibits solute and osmotically obliged H2O efflux. Because the Ca^2+i-dependent ion flux pathways activated following osmotic cell swelling of NPE cells are involved in aqueous secretion, BAPTA will inhibit aqueous humor formation and, thus, lower IOP.

| SMILES | intraocular pressure following treatment versus prior to treatment [1] | effect on regulatory volume decrease (RVD) [2] |
| --- | --- | --- |
| CC(=O)OCOC(=O)CN(CC(=O)OCOC(C)=O)c1ccccc1OCCOc1ccccc1N(CC(=O)OCOC(C)=O)CC(=O)OCOC(=O)CCC(=O)C(C)(C)C [Example 2] | significantly lower |  |
| CC(=O)OCOC(=O)CN(CC(=O)OCOC(C)=O)c1ccccc1OCCOc1ccccc1N(CC(=O)OCOC(C)=O)CC(=O)OCOC(C)=O [BAPTA-AM, acetoxymethyl ester of BAPTA] |  | totally depress |
